# Columns and labels:
# [1] = organism: Oryctolagus cuniculus; experiment: Compound was tested for the in vitro smooth muscle contractile activity; assay type: functional; conditions: Muscle tissue
# [2] = biological target: T1, Motilin receptor (Homo sapiens, UniProt O43193); experiment: Compound was tested for in vitro motilin receptor binding affinity
# [3] = biological target: T1, Motilin receptor; experiment: Compound was tested for in vitro motilin receptor binding affinity after treatment with hydrochloric acid solution (pH 2.5)
# [4] = system: Canis familiaris; experiment: Motor index (MI) was reported in vivo for smooth muscle contractile activity after i.v. administration of the compound; assay type: functional, Canis lupus familiaris, Muscle tissue
# [5] = system: Klebsiella pneumoniae; experiment: Tested for the minimum inhibitory concentration by agar dilution method against Klebsiella pneumoniae IFO 3512; assay type: functional
# [6] = system: Staphylococcus aureus; experiment: Tested for the minimum inhibitory concentration by agar dilution method against Staphylococcus aureus 209P; assay type: functional
# [7] = system: Bacillus subtilis; experiment: Compound was tested for the minimum inhibitory concentration by agar dilution method against Bacillus subtilis ATCC 6633; assay type: functional
# [8] = system: Escherichia coli; experiment: Tested for the minimum inhibitory concentration by agar dilution method against Escherichia coli NIHJ JC-2; assay type: functional
# [9] = system: Streptococcus pneumoniae; experiment: Tested for the minimum inhibitory concentration by agar dilution method against Streptococcus pneumoniae No. 12; assay type: functional
# [10] = system: Canis familiaris; experiment: Motor index (MI) was reported in vivo for smooth muscle contractile activity after i.g. administration of the compound; assay type: functional, Canis lupus familiaris, Muscle tissue
# T1 sequence (O43193 whole entry): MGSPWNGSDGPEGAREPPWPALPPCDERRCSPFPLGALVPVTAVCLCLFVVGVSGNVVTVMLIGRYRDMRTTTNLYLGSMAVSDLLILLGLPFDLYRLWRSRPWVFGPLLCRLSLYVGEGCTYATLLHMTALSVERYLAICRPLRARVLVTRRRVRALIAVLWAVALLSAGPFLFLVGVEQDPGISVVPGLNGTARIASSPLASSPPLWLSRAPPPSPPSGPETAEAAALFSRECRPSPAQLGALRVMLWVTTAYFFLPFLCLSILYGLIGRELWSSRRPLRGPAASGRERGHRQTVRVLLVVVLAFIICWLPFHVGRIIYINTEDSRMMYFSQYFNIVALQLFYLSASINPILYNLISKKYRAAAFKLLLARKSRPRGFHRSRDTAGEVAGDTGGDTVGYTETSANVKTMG
SMILES,EC50 [1] [nM],IC50 [2] [nM],IC50 [3] [nM],MIC [5] [µM],MIC [6] [µM],MIC [7] [µM],MIC [8] [µM],MIC [9] [µM],MI100 [4] [µg/kg],MI100 [10] [µg/kg]
CCC1OC(=O)C(C)C(O[C@H]2C[C@@](C)(OC)[C@@H](O)C(C)O2)C(C)[C@@H](OC2OC(C)CC(N(C)C)[C@H]2O)[C@]2(C)CC(C)C3(O[C@]1(C)[C@H](O)[C@H]3C)O2 (stereo not given in full),> 10000,155,170,–,–,–,–,–,>70,–
"CC[C@H]1OC(=O)[C@H](C)[C@@H](O[C@H]2C[C@@](C)(OC)[C@@H](O)[C@H](C)O2)[C@H](C)[C@@H](OC2O[C@H](C)C[C@H](N(C)C)[C@H]2O)C(C)(O)C[C@@H](C)C(=O)[C@H](C)[C@@H](O)[C@]1(C)O (single isomer, unassigned) [ERYTHROMYCIN]",316,–,–,6.3,0.39,0.39,100,0.1,32.3,–
CCC1OC(=O)C(C)C(O[C@H]2C[C@@](C)(OC)[C@@H](O)C(C)O2)C(C)[C@@H](OC2OC(C)CC(N(C)CC)[C@H]2O)[C@]2(C)CC(C)=C(O2)[C@H](C)[C@@H](O)[C@]1(C)OC (stereo not given in full),22.9,4.68,8.32,> 200,> 200,> 200,> 200,50,–,–
"CC[C@H]1OC(=O)[C@H](C)[C@@H](O[C@H]2C[C@@](C)(OC)[C@@H](O)[C@H](C)O2)[C@H](C)[C@@H](OC2O[C@H](C)C[C@H](N(C)C)[C@H]2O)C2(C)CC(C)=C(O2)[C@H](C)[C@@H](O)[C@]1(C)O (single isomer, unassigned)",–,3.39,224,–,–,–,–,–,1,–

# Continued, in another order:
EC50 [1] [nM],IC50 [2] [nM],IC50 [3] [nM],MIC [5] [µM],MIC [6] [µM],MIC [7] [µM],MIC [8] [µM],MIC [9] [µM],SMILES,MI100 [4] [µg/kg],MI100 [10] [µg/kg]
19.5,7.59,39.8,200,25,6.3,> 200,1.6,CCC1OC(=O)C(C)C(O[C@H]2C[C@@](C)(OC)[C@@H](O)C(C)O2)C(C)[C@@H](OC2OC(C)CC(N(C)C)[C@H]2O)[C@]2(C)CC(C)=C(O2)[C@H](C)[C@@H](O)[C@]1(C)OC (stereo not given in full),–,–
12.9,6.92,15.1,> 200,> 200,> 200,> 200,200,CCC1OC(=O)C(C)C(O[C@H]2C[C@@](C)(OC)[C@@H](O)C(C)O2)C(C)[C@@H](OC2OC(C)CC(N(C)C(C)C)[C@H]2O)[C@]2(C)CC(C)=C(O2)[C@H](C)[C@@H](O)[C@]1(C)OC (stereo not given in full),0.44,1.2
